Measurements published in patent publication US10711230B2, “N-acyl proline derivatives as food flavoring compounds” (Givaudan S.A., priority 2012, dated 2020).

Assays:
[1] = Expert taster evaluation in a mango juice drink; conditions: 1 ppm in base (water, 8% sucrose, 0.1% citric acid, 1% clear mango juice, mango flavour 0.05%); base alone: fruity mango
Experimental: (§1) Samples were evaluated by expert tasters. Tasters were asked to describe the samples focusing on authentic taste, mouthfeel, fullness, salty-ness, salivation, umami, sweetness, juiciness, richness, long lastingness and fattiness.
Comparison in a Mango Juice Drink
Base is water, 8% sucrose, 0.1% citric acid, 1% clear mango juice, proprietary mango flavour @ 0.05%

[2] = Expert taster evaluation in beef bouillon; conditions: 1 ppm in base (Maggi beef bouillon, 1 tablet in 500 ml hot water); base alone: salty, umami, powdery
Experimental: as §1
Base is Maggi beef bouillon 1 tablet in 500 ml of hot water

[3] = Expert taster evaluation in orange beverage; conditions: 1 ppm in base (water, 7% sugar, 0.1% citric acid, orange flavour 0.06%); base alone: orange, fruity, slightly candy
Experimental: as §1
Base is water, 7% sugar, 0.1% citric acid, proprietary orange flavour @ 0.06%.

[4] = Expert taster evaluation in lemon beverage; conditions: 1 ppm in base (water, 7% sucrose, 0.15% citric acid, lemon flavor), base alone: floral, citral
Experimental: as §1
Basis water, 7% sucrose, 0.15% citric acid, proprietary lemon flavor

Compound	taste description in mango juice drink [1]	taste description in bouillon [2]	taste description in orange beverage [3]	taste description in lemon beverage [4]
CCCCCCCCCCCCCCCC(=O)N1CCCC1C(=O)O (stereo not shown) [C16:0-pro, N-palmitoyl-Pro]	overripe, orange like, long lasting after taste	more salty, full, darker, more meat-like		
CCCCC/C=C\C/C=C\CCCCCCCC(=O)N1CCC[C@H]1C(=O)O [C18:2-pro, N-linoleoyl-Pro]			very juicy, authentic orange	very juicy, more citral like, very authentic
